# Results from article PMC8286840, “Identifying SARS-CoV-2 antiviral compounds by screening for small molecule inhibitors of Nsp3 papain-like protease” (Biochemical Journal, 2021).
# Structures can show the parent of a compound that is named as a salt. Where two headings read alike, the source gives them in different places.
# What was measured:
# [1] = target: T1, SARS-CoV-2 PLpro (nsp3 1564–1878) (Severe acute respiratory syndrome coronavirus 2, UniProt P0DTD1); experiment: biochemical; design: FRET-quenched peptide (Pro3) cleavage by PLpro, 10 min pre-incubation, slope over 20 min, normalised to no-compound control; conditions: low concentration screen, read-out: % of control remaining
# [2] = target: T1, SARS-CoV-2 PLpro (nsp3 1564–1878); experiment: biochemical; design: FRET-quenched peptide (Pro3) cleavage by PLpro, 10 min pre-incubation, slope over 20 min, normalised to no-compound control; conditions: high concentration screen, read-out: % of control remaining
structure (smiles),measurement,setting,value
O=C(O)CNC(=O)C(CS)Cc1ccccc1 (racemic) [DL-Thiorphan],remaining activity at 1.25 µM,[1]; Well no.=1243,103%
same,remaining activity at 3.75 µM,[2]; Well no.=1243,104%
NCCC[C@](N)(C(=O)O)C(F)F (racemic) [DL-alpha-Difluoromethylornithine hydrochloride],remaining activity at 1.25 µM,[1]; Well no.=500,103%
same,remaining activity at 3.75 µM,[2]; Well no.=500,104%
CCCCCCCCCCCCCCC[C@H](O)[C@H](N)CO (racemic) [DL-erythro-Dihydrosphingosine],remaining activity at 1.25 µM,[1]; Well no.=628,95.5%
same,remaining activity at 3.75 µM,[2]; Well no.=628,93.6%
COC(=O)C(N)Cc1ccc(Cl)cc1 (racemic) [DL-p-Chlorophenylalanine methyl ester hydrochloride],remaining activity at 1.25 µM,[1]; Well no.=364,95.9%
same,remaining activity at 3.75 µM,[2]; Well no.=364,91.1%
N[C@H](C(=O)O)[C@H](O)C(=O)O (racemic) [DL-threo-beta-hydroxyaspartic acid],remaining activity at 1.25 µM,[1]; Well no.=418,96.9%
same,remaining activity at 3.75 µM,[2]; Well no.=418,95.6%
Oc1cc2c(cc1O)[C@H]1c3ccccc3CN[C@@H]1CC2 (racemic) [Dihydrexidine hydrochloride],remaining activity at 1.25 µM,[1]; Well no.=645,87.6%
same,remaining activity at 3.75 µM,[2]; Well no.=645,91.3%
O=C(O)CCC/C=C\C[C@@H]1[C@@H](/C=C/[C@@H](O)COc2cccc(C(F)(F)F)c2)[C@H](O)C[C@@H]1O (racemic) [Fluprostenol],remaining activity at 1.25 µM,[1]; Well no.=4528,96.4%
same,remaining activity at 3.75 µM,[2]; Well no.=4528,99.8%
O=C(C[C@H]1NCCC[C@@H]1O)Cn1cnc2cc(Br)c(Cl)cc2c1=O (racemic) [Halofuginone],remaining activity at 1.25 µM,[1]; Well no.=7360,103%
same,remaining activity at 3.75 µM,[2]; Well no.=7360,95.2%
CC(=O)N1CCN(c2ccc(OC[C@@H]3CO[C@@](Cn4ccnc4)(c4ccc(Cl)cc4Cl)O3)cc2)CC1 (racemic) [Ketoconazole],remaining activity at 1.25 µM,[1]; Well no.=877,107%
same,remaining activity at 1.25 µM,[1]; Well no.=1853,99.4%
same,remaining activity at 3.75 µM,[2]; Well no.=877,107%
same,remaining activity at 3.75 µM,[2]; Well no.=1853,100%
CCN(CC)C(=O)[C@]1(c2ccccc2)C[C@@H]1CN (racemic) [Milnacipran HCl],remaining activity at 1.25 µM,[1]; Well no.=4977,102%
same,remaining activity at 3.75 µM,[2]; Well no.=4977,101%
CN1C(=O)NC(Cc2c[nH]c3c(Cl)cccc23)C1=O (racemic) [Necrostatin 2 (racemate)],remaining activity at 1.25 µM,[1]; Well no.=6828,99.1%
same,remaining activity at 3.75 µM,[2]; Well no.=6828,95%
CCCCCCCCCCCCCCCC(=O)OC(CC(=O)O)C[N+](C)(C)C (racemic) [Palmitoyl-DL-Carnitine chloride],remaining activity at 1.25 µM,[1]; Well no.=1098,86.5%
same,remaining activity at 3.75 µM,[2]; Well no.=1098,85.4%
CCOc1ccccc1O[C@H](c1ccccc1)[C@H]1CNCCO1 (racemic) [Reboxetine mesylate],remaining activity at 1.25 µM,[1]; Well no.=4989,94.7%
same,remaining activity at 3.75 µM,[2]; Well no.=4989,91.1%
C[C@@H](NCCc1ccc(O)cc1)[C@@H](O)c1ccc(O)cc1 (racemic) [Ritodrine (hydrochloride)],remaining activity at 1.25 µM,[1]; Well no.=6427,100%
same,remaining activity at 3.75 µM,[2]; Well no.=6427,91.3%
C[C@@H](NCCc1ccc(O)cc1)[C@@H](O)c1ccc(O)cc1 (racemic) [Ritodrine hydrochloride],remaining activity at 1.25 µM,[1]; Well no.=1156,97.7%
same,remaining activity at 3.75 µM,[2]; Well no.=1156,103%
COc1cc2c(cc1OC)[C@H]1CC(=O)[C@H](CC(C)C)CN1CC2 (racemic) [Tetrabenazine (Racemate)],remaining activity at 1.25 µM,[1]; Well no.=8692,95.2%
same,remaining activity at 3.75 µM,[2]; Well no.=8692,93.1%
N[C@@H]1C[C@H]1c1ccccc1 (racemic) [Tranylcypromine],remaining activity at 1.25 µM,[1]; Well no.=1564,95.7%
same,remaining activity at 3.75 µM,[2]; Well no.=1564,95.7%
COC(=O)C(C)(N)Cc1ccc(O)cc1 (racemic) [alpha-Methyl-DL-tyrosine methyl ester hydrochloride],remaining activity at 1.25 µM,[1]; Well no.=1068,97%
same,remaining activity at 3.75 µM,[2]; Well no.=1068,96.5%
CCCCCCCCCCCCCCCC(=O)NCC(COP(=O)([O-])OCC[N+](C)(C)C)OCC (racemic) [rac-2-Ethoxy-3-hexadecanamido-1-propylphosphocholine],remaining activity at 1.25 µM,[1]; Well no.=747,93.3%
same,remaining activity at 3.75 µM,[2]; Well no.=747,94.6%
CCCCCCCCCCCCCCCCCC(=O)NCC(COP(=O)([O-])OCC[N+](C)(C)C)OCC (racemic) [rac-2-Ethoxy-3-octadecanamido-1-propylphosphocholine],remaining activity at 1.25 µM,[1]; Well no.=413,102%
same,remaining activity at 3.75 µM,[2]; Well no.=413,101%
CCCCCCCCCCCCCCCC(=O)NCC(COP(=O)([O-])OCC[N+](C)(C)C)OC (racemic) [rac-2-Methoxy-3-hexadecanamido-1-propylphosphocholine],remaining activity at 1.25 µM,[1]; Well no.=1078,97.5%
same,remaining activity at 3.75 µM,[2]; Well no.=1078,96.5%
CCCCCCCCCCCCCCCCCC(=O)NCC(COP(=O)([O-])OCC[N+](C)(C)C)OC (racemic) [rac-2-Methoxy-3-octadecanamido-1-propylphosphocholine],remaining activity at 1.25 µM,[1]; Well no.=1126,96.3%
same,remaining activity at 3.75 µM,[2]; Well no.=1126,96.8%
CCCN(CCc1cccs1)C1CCc2c(O)cccc2C1 (racemic) [rac-Rotigotine (Hydrochloride)],remaining activity at 1.25 µM,[1]; Well no.=6809,98.8%
same,remaining activity at 3.75 µM,[2]; Well no.=6809,95.7%
"O=C(O)[C@@H]1C[C@@H](C(=O)O)N1 (relative stereo) [trans-Azetidine-2,4-dicarboxylic acid]",remaining activity at 1.25 µM,[1]; Well no.=68,104%
same,remaining activity at 3.75 µM,[2]; Well no.=68,103%
"CN(C)CCC(c1ccc(Br)cc1)c1ccccn1 (single isomer, unassigned; (+)) [(+)-Brompheniramine maleate]",remaining activity at 1.25 µM,[1]; Well no.=365,98.9%
same,remaining activity at 3.75 µM,[2]; Well no.=365,98.5%
"CN(C)CCC(c1ccc(Cl)cc1)c1ccccn1 (single isomer, unassigned; (+)) [(+)-Chlorpheniramine maleate]",remaining activity at 1.25 µM,[1]; Well no.=130,105%
same,remaining activity at 3.75 µM,[2]; Well no.=130,105%
"COc1ccc2c3c1O[C@H]1C(=O)CC[C@@]4(O)C(C2)N(CC2CC2)CCC314 (single isomer, unassigned; (-)) [(-)-3-Methoxynaltrexone hydrochloride]",remaining activity at 1.25 µM,[1]; Well no.=947,98.1%
same,remaining activity at 3.75 µM,[2]; Well no.=947,97%
"CN1CCCC1c1cccnc1 (single isomer, unassigned; (-)) [(-)-Nicotine hydrogen tartrate salt]",remaining activity at 1.25 µM,[1]; Well no.=809,95.3%
same,remaining activity at 3.75 µM,[2]; Well no.=809,92.5%
"C[N+]1(C)C2CC(OC(=O)[C@H](CO)c3ccccc3)CC1C1OC12 (single isomer, unassigned; (-)) [(-)-Scopolamine methyl nitrate]",remaining activity at 1.25 µM,[1]; Well no.=1454,93.9%
same,remaining activity at 3.75 µM,[2]; Well no.=1454,96.6%
"CC(N)[C@H](O)c1ccc(O)c(O)c1 (single isomer, unassigned; (-)) [(-)-alpha-Methylnorepinephrine]",remaining activity at 1.25 µM,[1]; Well no.=547,102%
same,remaining activity at 3.75 µM,[2]; Well no.=547,103%
CN1c2ccccc2C(=O)N2CCc3c([nH]c4ccccc34)C21 (stereo in doubt) [Evodiamine],remaining activity at 1.25 µM,[1]; Well no.=3809,95.1%
same,remaining activity at 3.75 µM,[2]; Well no.=3809,98.5%
Cc1ccc(S(=O)(=O)NC(=O)NN2CC3CCC[C@@H]3C2)cc1 (stereo in doubt) [Gliclazide],remaining activity at 1.25 µM,[1]; Well no.=2176,101%
same,remaining activity at 3.75 µM,[2]; Well no.=2176,102%
